From patent US20240269139A1, “COMPOUNDS FOR TARGETED PROTEIN DEGRADATION OF KINASES” (DANA-FARBER CANCER INSTITUTE, INC., priority 2020, published 2024)
Like-named read-outs stand apart in the source and are kept apart here.

Columns and labels:
Type in all cases: cell-based
[1] = target: protein kinases (human kinome) (Homo sapiens, UniProt P07948); details: for logFC: LYN (P07948-1)
[2] = target: protein kinases (human kinome) (Homo sapiens, UniProt Q9H3S4); details: TPK1 (Q9H3S4); experiment wp114
[3] = target: T1, protein kinases (human kinome) (Homo sapiens, UniProt P52789); details: HK2 (P52789); experiment wp076
T1 sequence (P52789 1-917): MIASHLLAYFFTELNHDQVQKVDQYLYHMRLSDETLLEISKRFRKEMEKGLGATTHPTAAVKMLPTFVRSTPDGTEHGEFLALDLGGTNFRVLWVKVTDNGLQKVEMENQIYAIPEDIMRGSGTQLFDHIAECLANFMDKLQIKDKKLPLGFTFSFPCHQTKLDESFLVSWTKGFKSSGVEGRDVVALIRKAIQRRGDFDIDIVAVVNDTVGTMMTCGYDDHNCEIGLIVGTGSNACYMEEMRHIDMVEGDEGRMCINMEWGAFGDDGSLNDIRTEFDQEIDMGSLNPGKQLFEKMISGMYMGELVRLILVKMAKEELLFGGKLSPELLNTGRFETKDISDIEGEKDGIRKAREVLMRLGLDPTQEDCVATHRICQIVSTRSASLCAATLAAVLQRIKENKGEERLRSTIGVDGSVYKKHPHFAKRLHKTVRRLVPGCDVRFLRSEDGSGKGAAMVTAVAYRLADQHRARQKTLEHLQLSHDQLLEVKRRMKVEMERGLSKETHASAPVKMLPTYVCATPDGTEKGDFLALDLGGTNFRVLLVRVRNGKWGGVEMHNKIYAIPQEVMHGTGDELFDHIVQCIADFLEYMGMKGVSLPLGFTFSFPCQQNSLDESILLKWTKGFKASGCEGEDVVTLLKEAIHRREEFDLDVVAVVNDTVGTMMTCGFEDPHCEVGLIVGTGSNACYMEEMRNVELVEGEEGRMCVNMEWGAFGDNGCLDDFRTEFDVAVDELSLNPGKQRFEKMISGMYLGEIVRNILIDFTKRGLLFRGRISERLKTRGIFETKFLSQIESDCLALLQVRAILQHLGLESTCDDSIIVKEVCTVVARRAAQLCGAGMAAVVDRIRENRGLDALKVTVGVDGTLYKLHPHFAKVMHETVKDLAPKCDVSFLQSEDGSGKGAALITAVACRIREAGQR

[4] = target: protein kinases (human kinome) (Homo sapiens, UniProt O00311); details: for logFC: CDC7 (O00311-1)
[5] = target: protein kinases (human kinome) (Homo sapiens, UniProt P48730); details: for logFC CSNK1D: Accession P48730-1, direction down
[6] = target: T2, protein kinases (human kinome) (Homo sapiens, UniProt P51955); details: NEK2 (P51955)
T2 sequence (P51955 1-445): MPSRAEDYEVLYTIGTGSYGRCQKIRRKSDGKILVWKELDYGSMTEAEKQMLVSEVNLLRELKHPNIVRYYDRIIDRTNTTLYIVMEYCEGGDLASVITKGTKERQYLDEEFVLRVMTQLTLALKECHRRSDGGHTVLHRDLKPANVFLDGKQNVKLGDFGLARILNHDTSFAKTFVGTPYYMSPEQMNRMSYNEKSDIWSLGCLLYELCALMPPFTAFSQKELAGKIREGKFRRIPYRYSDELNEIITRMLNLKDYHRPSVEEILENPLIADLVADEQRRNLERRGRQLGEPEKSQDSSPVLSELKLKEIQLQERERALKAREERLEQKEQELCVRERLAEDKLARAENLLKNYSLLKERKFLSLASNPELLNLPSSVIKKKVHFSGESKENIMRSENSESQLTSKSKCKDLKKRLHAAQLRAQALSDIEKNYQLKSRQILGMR

Chain of protein kinases (human kinome) (Homo sapiens, UniProt O00311) (O00311 whole entry): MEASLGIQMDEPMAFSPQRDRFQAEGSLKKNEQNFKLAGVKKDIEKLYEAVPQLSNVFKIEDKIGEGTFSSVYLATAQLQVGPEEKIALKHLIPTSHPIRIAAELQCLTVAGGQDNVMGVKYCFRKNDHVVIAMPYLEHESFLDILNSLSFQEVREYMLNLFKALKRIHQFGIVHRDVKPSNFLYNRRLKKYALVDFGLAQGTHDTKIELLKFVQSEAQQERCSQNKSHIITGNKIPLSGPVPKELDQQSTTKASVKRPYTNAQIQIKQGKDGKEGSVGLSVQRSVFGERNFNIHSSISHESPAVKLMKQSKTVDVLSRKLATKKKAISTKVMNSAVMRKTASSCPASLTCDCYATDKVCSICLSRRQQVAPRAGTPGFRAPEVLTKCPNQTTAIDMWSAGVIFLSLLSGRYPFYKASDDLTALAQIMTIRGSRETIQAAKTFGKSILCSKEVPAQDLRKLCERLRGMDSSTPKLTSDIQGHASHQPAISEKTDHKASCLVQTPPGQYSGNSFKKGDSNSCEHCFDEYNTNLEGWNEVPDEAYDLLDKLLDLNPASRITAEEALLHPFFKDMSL
Chain of protein kinases (human kinome) (Homo sapiens, UniProt P07948) (P07948 whole entry): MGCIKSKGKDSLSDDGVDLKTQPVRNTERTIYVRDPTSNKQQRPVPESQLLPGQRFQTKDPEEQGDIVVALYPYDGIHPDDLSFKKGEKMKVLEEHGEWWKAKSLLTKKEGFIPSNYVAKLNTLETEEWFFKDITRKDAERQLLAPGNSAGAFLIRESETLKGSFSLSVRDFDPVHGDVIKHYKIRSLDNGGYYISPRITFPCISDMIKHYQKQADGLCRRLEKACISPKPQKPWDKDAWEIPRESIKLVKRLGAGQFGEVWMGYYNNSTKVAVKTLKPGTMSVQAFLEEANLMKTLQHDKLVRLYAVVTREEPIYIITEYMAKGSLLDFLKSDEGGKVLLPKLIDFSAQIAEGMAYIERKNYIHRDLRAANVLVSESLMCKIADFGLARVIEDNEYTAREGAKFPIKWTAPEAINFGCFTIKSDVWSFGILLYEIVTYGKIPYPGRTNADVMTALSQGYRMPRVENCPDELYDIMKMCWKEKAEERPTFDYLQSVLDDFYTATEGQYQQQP
Chain of protein kinases (human kinome) (Homo sapiens, UniProt P48730) (P48730 whole entry): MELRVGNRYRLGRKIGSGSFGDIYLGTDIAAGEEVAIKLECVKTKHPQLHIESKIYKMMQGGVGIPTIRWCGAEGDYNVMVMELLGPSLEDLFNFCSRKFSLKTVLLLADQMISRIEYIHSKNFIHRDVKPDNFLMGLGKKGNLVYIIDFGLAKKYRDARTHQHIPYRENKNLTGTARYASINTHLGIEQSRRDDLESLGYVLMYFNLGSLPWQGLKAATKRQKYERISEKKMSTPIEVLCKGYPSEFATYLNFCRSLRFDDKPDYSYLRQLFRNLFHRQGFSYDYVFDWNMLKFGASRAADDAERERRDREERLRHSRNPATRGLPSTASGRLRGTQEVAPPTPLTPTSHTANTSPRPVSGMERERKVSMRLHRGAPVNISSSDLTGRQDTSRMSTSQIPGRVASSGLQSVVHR
Chain of protein kinases (human kinome) (Homo sapiens, UniProt Q9H3S4) (Q9H3S4 whole entry): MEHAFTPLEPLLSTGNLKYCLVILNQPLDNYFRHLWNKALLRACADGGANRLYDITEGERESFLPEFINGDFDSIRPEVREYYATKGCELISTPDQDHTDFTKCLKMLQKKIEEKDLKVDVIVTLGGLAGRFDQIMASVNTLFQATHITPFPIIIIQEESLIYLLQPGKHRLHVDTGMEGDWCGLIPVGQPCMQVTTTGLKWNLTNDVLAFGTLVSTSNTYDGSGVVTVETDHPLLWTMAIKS

With `Cc1ccc(NC(=O)c2cccc(C(F)(F)F)c2)cc1N1Cc2cnc(Nc3ccc(N4CCN(Cc5cn(CCCCCOc6cccc7c6C(=O)N(C6CCC(=O)NC6=O)C7=O)nn5)CC4)nc3)nc2N(C)C1=O` (stereo not shown) [DB0646, N-(3-(7-((6-(4-((1-(5-((2-(2,6-Dioxopiperidin-3-yl)-1,3-dioxoisoindolin-4-yl)oxy)pentyl)-1H-1,2,3-triazol-4-yl)methyl)piperazin-1-v)pyridin-3-yl)amino)-1-methyl-2-oxo-1,4-dihydropyrimido[4,5-d]pyrimidin-3(2H)-yl)-4-methylphenyl)-3-(trifluoromethyl)benzamide] the “logFC of LYN (P07948-1)” value ([1]; Experiment wp172) was −0.7938, the logFC ([1]; experiment wp172) was −0.7938 and the logFC [2] was −1.144.

`Cc1ccc(C(=O)Nc2ccc(CN3CCN(CCCOCCOCCOCCNC(=O)COc4cccc5c4C(=O)N(C4CCC(=O)NC4=O)C5=O)CC3)c(C(F)(F)F)c2)cc1C#Cc1cnc2cccnn12` (stereo not shown) [SB1.G.187] was tested, and the logFC ([1]; experiment wp172) was −1.23 and the “logFC LYN (P07948-1)” value ([1]; experiment wp172, direction of change down) was −1.23.

Work on `CNC(=O)c1ccccc1Nc1cc(Nc2ccc(N3CCN(CCOCCOCCNC(=O)CNc4cccc5c4C(=O)N(C4CCC(=O)NC4=O)C5=O)CC3)cc2OC)ncc1C(F)(F)F` (stereo not shown) [MFH.5.103.1] yielded a logFC [3] of −0.3819.

In the case of `Cc1ncsc1-c1ccc([C@H](C)NC(=O)[C@@H]2C[C@@H](O)CN2C(=O)[C@@H](NC(=O)CCOCCOCCN2CCN(c3ccc(Nc4ncc(Cl)c(Nc5ccccc5S(=O)(=O)C(C)C)n4)cc3)CC2)C(C)(C)C)cc1` [FMF.06.098.1], the logFC ([4]; experiment wp108) is reported as −0.3323, the logFC ([4]; experiment wp131) is reported as −0.4109 and the “logFC of CDC7 (O00311-1)” value ([4]; Experiment wp108) is reported as −0.3323. The “logFC of CDC7 (O00311-1)” value ([4]; experiment wp131) was −0.4109 and the logFC [2] was −0.8744.

`CC(C)S(=O)(=O)c1ccccc1Nc1nc(Nc2ccc(N3CCN(CCOCCNC(=O)CNc4cccc5c4C(=O)N(C4CCC(=O)NC4=O)C5=O)CC3)cc2)ncc1Cl` (stereo not shown) [SK.3.91] was tested, and the logFC ([4]; experiment wp133, 4 hr) was −0.3652, the “logFC of CDC7 (O00311-1)” value ([4]; experiment wp133, 4 hr) was −0.3652 and the “logFC CSNK1D” value ([5]; experiment wp133, 4 hr) was −0.4585. The “logFC of CSNK1D (P48730-1)” value ([5]; experiment wp133, 4 hr) was −0.4585, the logFC ([6]; experiment wp103) was −0.4564 and the logFC ([6]; experiment wp103, direction down) was −0.4564. For the same molecule, the logFC ([6]; experiment wp105) was −0.3908, the logFC ([6]; experiment wp105, direction down) was −0.3908 and the logFC ([6]; experiment wp107) was −0.6368. The logFC ([6]; experiment wp107, direction down) was −0.6368, the logFC ([6]; experiment wp133, 1 hr) was −0.4397 and the logFC ([6]; experiment wp133, 1 hr, direction down) was −0.4397. For the same molecule, the logFC ([6]; experiment wp133, 2 hr) was −0.4411, the logFC ([6]; experiment wp133, 2 hr, direction down) was −0.4411 and the logFC ([6]; experiment wp133, 4 hr) was −0.7303. It also gave a logFC ([6]; experiment wp133, 4 hr, direction down) of −0.7303, a logFC ([6]; experiment wp160, 4 hr) of −0.4294 and a logFC ([6]; experiment wp160, 4 hr, direction down) of −0.4294.

`O=C1CCC(N2C(=O)c3cccc(NCCCCCCCCN4CCC(NC(=O)c5[nH]ncc5NC(=O)c5c(Cl)cccc5Cl)CC4)c3C2=O)C(=O)N1` (stereo not shown) [MFH.5.126.1] showed a logFC [3] of −0.322.

With `CC(C)S(=O)(=O)c1ccccc1Nc1nc(Nc2ccc(N3CCN(CCOCCOCCNC(=O)CNc4cccc5c4C(=O)N(C4CCC(=O)NC4=O)C5=O)CC3)cc2)ncc1Cl` (stereo not shown) [TL12.186] the “logFC CSNK1D” value ([5]; experiment wp131) was −0.3551, the “logFC of CSNK1D (P48730-1)” value ([5]; experiment wp131) was −0.3551 and the logFC ([6]; experiment wp131) was −0.3783. For the same molecule, the logFC ([6]; experiment wp131, direction down) was −0.3783.
